Data as given in patent publication US8236729B2, “Herbicidal compositions” (Bayer Cropscience AG, priority 2004, dated 2012).

System: Lolium multiflorum
Assay: Outdoor trial, post-emergence herbicidal action (Example 5.2)
Assay type: in vivo
Conditions: 1080 g of AS/ha, application at the 2-5-leaf stage (post-emergence), evaluation 55 days after treatment
Protocol: The herbicidal efficacy of the active compounds or active compound mixtures was scored visually by comparing the treated pots (soil) with untreated controls. The damage and development of all above-ground plant parts was recorded. Scoring was done on a percentage scale (100% action=all plants dead or not emerged; 50% action=50% of the plants and green plant parts dead or not emerged; 0% action=no discernible action=like control plot). The score figures of in any case 4 repetitions (pots) were averaged.
When applying the combinations according to the invention, herbicidal effects are frequently observed on a harmful plant species which exceed the formal total of the effects of the herbicides present when these are applied by themselves. Alternatively, it is observed in some cases that a lower application rate is required for the herbicide combination in order to achieve the same effect on a harmful plant species in comparison with the individual products. […] When the data observed already exceed the formal total of the data in the experiments with individual applications, they likewise exceed the expected value according to Colby, which is calculated using the formula below and is likewise regarded as an indication of synergism (cf. S. R. Colby; in Weeds 15 (1967) pp. 20 to 22): E=A+B−(A·B/100) […]

Substance: Glyphosate-isopropylammonium [(B2.1.2.1)]
- Herbicidal action [%] against Lolium multiflorum: 18%
